Experimental data published in the supplement of paper PMC11061612.

Experiments:
[1] = test system: PANC-02-03 (Pancreatic Carcinoma); assay: Bliss excess, mean over the matrix (fraction); higher = more synergy
In short: (§1)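 Bliss excess equals the observed combination effect minus the expected value EA + EB − EA·EB, where EA and EB are the effects of each agent alone. Combination Emax is the second-highest inhibition within the matrix. Inhibition was scaled from CellTiter-Glo 2.0 luminescence, with 0 set by vehicle wells and 1 by blank wells, after 72 hours of two-drug dosing of cells plated in 1536-well plates.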

[2] = test system: OV-90 (Ovarian Carcinoma); assay: as above
In short: as §1

[3] = test system: HCC-44 (Lung Adenocarcinoma); assay: as above
In short: as §1

[4] = test system: NCI-H1755 (Lung Adenocarcinoma); assay: as above
In short: as §1

[5] = test system: NKM-1 (Acute Myeloid Leukemia); assay: as above
In short: as §1

[6] = test system: EB-3 (Burkitt's Lymphoma); assay: as above
In short: as §1

[7] = test system: SK-MM-2 (Plasma Cell Myeloma); assay: as above
In short: as §1

[8] = test system: RMG-I (Ovarian Carcinoma); assay: as above
In short: as §1

[9] = test system: LAMA-84 (Chronic Myelogenous Leukemia); assay: as above
In short: as §1

[10] = test system: COLO-684 (Endometrial Carcinoma); assay: as above
In short: as §1

[11] = test system: CHL-1 (Melanoma); assay: as above
In short: as §1

[12] = test system: LOUCY (T-Lymphoblastic Leukemia); assay: as above
In short: as §1

[13] = test system: KYSE-70 (Esophageal Squamous Cell Carcinoma); assay: as above
In short: as §1

[14] = test system: SW684 (Other Solid Carcinomas); assay: as above
In short: as §1

[15] = test system: KYM-1 (Rhabdomyosarcoma); assay: as above
In short: as §1

[16] = test system: FLO-1 (Esophageal Adenocarcinoma); assay: as above
In short: as §1

[17] = test system: Becker (Low Grade Glioma); assay: as above
In short: as §1

[18] = test system: NCI-H810 (Non-Small Cell Lung Carcinoma); assay: as above
In short: as §1

[19] = test system: CML-T1 (Chronic Myelogenous Leukemia); assay: as above
In short: as §1

[20] = test system: PC-14 (Lung Adenocarcinoma); assay: as above
In short: as §1

[21] = test system: PANC-02-03 (Pancreatic Carcinoma); assay: combination Emax (second highest fraction inhibited in the dose matrix, 72 h); higher = more inhibition; extreme values may be limits of the assay
In short: as §1

[22] = test system: OV-90 (Ovarian Carcinoma); assay: as above
In short: as §1

[23] = test system: HCC-44 (Lung Adenocarcinoma); assay: as above
In short: as §1

[24] = test system: NCI-H1755 (Lung Adenocarcinoma); assay: as above
In short: as §1

[25] = test system: NKM-1 (Acute Myeloid Leukemia); assay: as above
In short: as §1

[26] = test system: EB-3 (Burkitt's Lymphoma); assay: as above
In short: as §1

[27] = test system: SK-MM-2 (Plasma Cell Myeloma); assay: as above
In short: as §1

[28] = test system: RMG-I (Ovarian Carcinoma); assay: as above
In short: as §1

[29] = test system: LAMA-84 (Chronic Myelogenous Leukemia); assay: as above
In short: as §1

[30] = test system: COLO-684 (Endometrial Carcinoma); assay: as above
In short: as §1

[31] = test system: CHL-1 (Melanoma); assay: as above
In short: as §1

[32] = test system: LOUCY (T-Lymphoblastic Leukemia); assay: as above
In short: as §1

[33] = test system: KYSE-70 (Esophageal Squamous Cell Carcinoma); assay: as above
In short: as §1

[34] = test system: SW684 (Other Solid Carcinomas); assay: as above
In short: as §1

[35] = test system: KYM-1 (Rhabdomyosarcoma); assay: as above
In short: as §1

[36] = test system: FLO-1 (Esophageal Adenocarcinoma); assay: as above
In short: as §1

[37] = test system: Becker (Low Grade Glioma); assay: as above
In short: as §1

[38] = test system: NCI-H810 (Non-Small Cell Lung Carcinoma); assay: as above
In short: as §1

[39] = test system: CML-T1 (Chronic Myelogenous Leukemia); assay: as above
In short: as §1

[40] = test system: PC-14 (Lung Adenocarcinoma); assay: as above
In short: as §1

SMILES	Bliss excess [1]	Bliss excess [2]	Bliss excess [3]	Bliss excess [4]	Bliss excess [5]	Bliss excess [6]	Bliss excess [7]	Bliss excess [8]	Bliss excess [9]	Bliss excess [10]	Bliss excess [11]	Bliss excess [12]	Bliss excess [13]	Bliss excess [14]	Bliss excess [15]	Bliss excess [16]	Bliss excess [17]	Bliss excess [18]	Bliss excess [19]	Bliss excess [20]	combination Emax [21]	combination Emax [22]	combination Emax [23]	combination Emax [24]	combination Emax [25]	combination Emax [26]	combination Emax [27]	combination Emax [28]	combination Emax [29]	combination Emax [30]	combination Emax [31]	combination Emax [32]	combination Emax [33]	combination Emax [34]	combination Emax [35]	combination Emax [36]	combination Emax [37]	combination Emax [38]	combination Emax [39]	combination Emax [40]
N#Cc1cnc(Nc2cc(NC[C@H]3CNCCO3)c(C(F)(F)F)cn2)cn1 [SRA737] + CCc1c2c(nc3ccc(O)cc13)-c1cc3c(c(=O)n1C2)COC(=O)[C@]3(O)CC [SN-38] (first compound max 10 µM, 7x7, partner max 0.3 µM)	-0.0673	-0.0976	0.124	-0.0327	-0.0365	-0.0157	0.014	-0.0426	-0.023	0.0144	0.0724	0.102	0.0857	-0.0846	-0.0207	0.0593	-0.0297	0.0918	-0.0022	0.0164	0.674	0.519	0.904	0.871	0.995	0.828	0.776	0.484	0.953	0.878	0.807	0.952	0.683	0.459	0.945	0.815	0.865	0.829	1	0.816
C[C@@H]1COCCN1c1cc(C2([S@](C)(=N)=O)CC2)nc(-c2ccnc3[nH]ccc23)n1 [AZD6738] + Nc1ccn([C@@H]2O[C@H](CO)[C@@H](O)C2(F)F)c(=O)n1 [Gemcitabine] (first compound max 10 µM, 7x7, partner max 0.3 µM)	-0.0067	-0.0129	0.0963	0.0444	-0.0345	0.007	0.114	-0.0514	0.0674	-0.0731	0.0858	0.0579	-0.0006	0.0693	0.0132	0.124	0.0762	0.0805	0.0987	0.0058	0.579	0.573	0.844	0.812	1	0.847	0.572	0.48	0.976	0.733	0.902	1	0.504	0.559	1	0.949	0.808	0.794	1	0.869
CN(CCO)CC[C@H](CSc1ccccc1)Nc1ccc(S(=O)(=O)NC(=O)c2ccc(N3CCC([C@@H](O)c4ccccc4-c4ccc(Cl)cc4)CC3)cc2)cc1S(=O)(=O)C(F)(F)F [AZD4320] + CC(=O)O[C@H]1C(=O)[C@@]2(C)[C@H]([C@H](OC(=O)c3ccccc3)[C@]3(O)C[C@H](OC(=O)[C@H](O)[C@@H](NC(=O)c4ccccc4)c4ccccc4)C(C)=C1C3(C)C)[C@]1(OC(C)=O)CO[C@@H]1C[C@@H]2O [Paclitaxel] (first compound max 1 µM, 7x7, partner max 3 µM)	0.0109	0.0935	-0.0294	0.0211	0.0078	-0.0733	0.0531	0.133	0.0001	0.0345	0.0578	0.0229	0.0722	0.164	0.017	0.0005	0.0744	0.237	-0.0236	0.0125	0.597	0.932	0.876	0.9	1	0.754	1	0.94	1	0.663	1	1	0.597	0.952	1	0.98	1	0.992	1	0.996
